# Reference: patent EP4692059A1, “CATIONIC LIPID HAVING DISULFIDE BOND” (Tohoku University, priority 2023, dated 2024)
# How the values were obtained:
# [1] = Particle size, PdI and zeta potential of mRNA-encapsulating LNPs by dynamic light scattering (Experimental Example 2); format: physicochemical
# Protocol: An acidic buffer solution (total amount: 1080 µL) of nucleic acid was prepared by weighing 7.2 µg of mRNA solution (0.6 mg/mL) in a 5 mL tube and adding acidic malate buffer (20 mM, pH 3.0).
# An acidic buffer solution of nucleic acid and an ethanol solution of lipid were each weighed in a syringe.
# The particle size, PdI (Polydispersity Index), and zeta potential of the mRNA-encapsulating LNP prepared by the method of the above-mentioned 1 were measured by a dynamic light scattering method (Zetasizer Nano; Malvern).
# [2] = Particle size, PdI and zeta potential of mRNA-encapsulating LNPs by dynamic light scattering (Experimental Example 6); format: physicochemical; conditions: mRNA-encapsulating LNP; for zeta potential (mV): cationic lipid:DOPC:Chol=49:7.5:42.5:1, dispersion in TBS (Tables 8-1, 8-2); for PdI / particle size (nm): cationic lipid:DOPC:Chol=49:7.5:42.5:1, dispersion in TBS, dynamic light scattering (Tables 8-1, 8-2)
# Protocol: An acidic buffer solution (total amount: 1300 µL) of nucleic acid was prepared by weighing 6.5 µg of mRNA solution (0.6 mg/mL) in a 5 mL tube and adding acidic citrate buffer (20 mM, pH 5.0).
# An acidic buffer solution of nucleic acid and an ethanol solution of lipid were each weighed in a syringe. […] The obtained concentrate was diluted with TBS to a lipid concentration of 2 mM to give a dispersion containing LNP.
# The particle size, PdI (Polydispersity Index), and zeta potential of the mRNA-encapsulating LNP prepared by the method of the above-mentioned 1 were measured by a dynamic light scattering method (Zetasizer Nano; Malvern). […]
# [3] = system: liver; assay: In vivo gene expression, luciferase luminescence in the liver after tail vein administration (Experimental Example 4); conditions: BALB/c mouse, mRNA 0.05 mg/kg; for amount of luminescence (photons/sec) in liver: tail vein, 4.5 hr after administration, LNP cationic lipid:DOPC:Chol:DMG-PEG2k = 52.5:7.5:40:1.5, prepared as in Experimental Example 2; for relative amount of luminescence: liver luminescence relative to cationic lipid of Comparative Example
# Protocol: LNP encapsulating mRNA that expresses luciferase (cationic lipid:DOPC:Chol:DMG-PEG2k = 52.5:7.5:40:1.5 (molar ratio)) was prepared by the method described in [Experimental Example 2], 1.
# The prepared each mRNA-encapsulating LNP dispersion was administered from the tail vein of BALB/c mouse (male, 5-week-old). The dose of mRNA was set to 0.05 mg per 1 kg body weight of the mouse, and the dose of the mRNA-encapsulating LNP dispersion was set to 10 µL per 1 g body weight of the mouse. After 4.5 hr from the administration of the mRNA-encapsulating LNP dispersion, a PBS solution of D-luciferin potassium was administered into the abdominal cavity of the mouse. The dose of D-luciferin potassium was set to 3 mg per mouse, and the dose of the PBS solution of D-luciferin potassium was set to 200 µL per mouse. After 15 min from the administration of the PBS solution of D-luciferin potassium, the mouse was euthanized, and the liver was isolated. The luminescence in the liver was quantified using an in vivo imaging system (IVIS) with an exposure of 10 sec. The amount of luminescence in the liver was quantified by image analysis using Live Imaging software attached to IVIS. The amount of luminescence (photons/sec) was calculated from the acquired image and used as an index of gene expression activity. The cationic lipids used, the luminescence intensity in the liver, and the relative luminescence intensity (= luminescence intensity in the liver when cationic lipid of Example was used/luminescence intensity in the liver when cationic lipid of Comparative Example was used) are shown in Table 7-1 to Table 7-3. "E+0a" (a: integer) indicated in Table 7-1 to Table 7-3 means "10^a". For example, "3.94E+09" means "3.94×10^9". […]
# [4] = mRNA-encapsulating LNP, cationic lipid:DOPC:Chol = 50:10:40 (molar ratio) + DMG-PEG2k about 1 mol, Polydispersity Index, dynamic light scattering
# [5] = mRNA-encapsulating LNP, cationic lipid:DOPC:Chol = 50:10:40 (molar ratio) + DMG-PEG2k about 1 mol, Zetasizer Nano
# [6] = mRNA-encapsulating LNP, cationic lipid:DOPC:Chol = 50:10:40 (molar ratio) + DMG-PEG2k about 1 mol, dynamic light scattering
# [7] = mRNA-encapsulating LNP containing the cationic lipid, dispersion in PBS (Table 5-3)
# [8] = mRNA-encapsulating LNP containing the cationic lipid, dispersion in PBS, dynamic light scattering (Table 5-3)
smiles,measurement,setting,value
CCCCCCC#CCCOC(=O)CCCC(=O)Oc1ccc(CC(=O)OCCC2CCN(CCSSCCN3CCC(CCOC(=O)Cc4ccc(OC(=O)CCCCCCC/C=C\CCCCCCCC)cc4)CC3)CC2)cc1 [compound 149],PdI,[1]; [4],0.059
same,zeta potential (mV),[1]; [5],-6.03 mV
same,particle size (nm),[1]; [6],97.44 nm
same,zeta potential (mV),[2],-6.2 mV
same,PdI,[2],0.15
same,particle size (nm),[2],123.1 nm
CCCCCCCC/C=C\CCCCCCCC(=O)Oc1ccc(CC(=O)OCCC2CCN(CCSSCCN3CCC(CCOC(=O)Cc4ccc(OC(=O)CCCC(=O)N(CCCCCC)CCCCCC)cc4)CC3)CC2)cc1 [compound 124],zeta potential (mV),[1]; [7],-5.07 mV
same,PdI,[1]; [8],0.111
same,particle size (nm),[1]; [8],96.63 nm
same,amount of luminescence (photons/sec) in liver,[3],5.12E+09 photons/sec
same,relative amount of luminescence,[3],3.37
CCCCCCCC/C=C\CCCCCCCC(=O)Oc1ccc(CC(=O)OCCC2CCN(CCSSCCN3CCC(CCOC(=O)Cc4ccc(OC(=O)CCCCCCCCCCC(CCCCCC)OC(=O)CCCCCCC)cc4)CC3)CC2)cc1 (stereo not drawn) [compound 145],zeta potential (mV),[1]; [7],-2.39 mV
same,PdI,[1]; [8],0.034
same,particle size (nm),[1]; [8],83.1 nm
same,amount of luminescence (photons/sec) in liver,[3],6.65E+09 photons/sec
same,relative amount of luminescence,[3],4.37
same,zeta potential (mV),[2],-3.79 mV
same,PdI,[2],0.082
same,particle size (nm),[2],122.1 nm
CCCCCC/C=C\COC(=O)CCCC(=O)Oc1ccc(CC(=O)OCCC2CCN(CCSSCCN3CCC(CCOC(=O)Cc4ccc(OC(=O)CCCCCCC/C=C\CCCCCCCC)cc4)CC3)CC2)cc1 [compound 43],PdI,[1]; [4],0.072
same,zeta potential (mV),[1]; [5],-3.98 mV
same,particle size (nm),[1]; [6],90.46 nm
same,zeta potential (mV),[2],-5.9 mV
same,PdI,[2],0.17
same,particle size (nm),[2],128.2 nm
CCCCCCC#CCCOC(=O)CCCC(=O)Oc1ccc(CC(=O)OCCC2CCN(CCSSCCN3CCC(CCOC(=O)Cc4ccc(OC(=O)CCCC(=O)Oc5c(C)c(C)c6c(c5C)CCC(C)(CCCC(C)CCCC(C)CCCC(C)C)O6)cc4)CC3)CC2)cc1 (stereo not drawn) [compound 150],PdI,[1]; [4],0.071
same,zeta potential (mV),[1]; [5],-2.14 mV
same,particle size (nm),[1]; [6],94.66 nm
same,zeta potential (mV),[2],-8.1 mV
same,PdI,[2],0.11
same,particle size (nm),[2],130.2 nm
CCCCCC/C=C\COC(=O)CCCC(=O)Oc1ccc(CC(=O)OCCC2CCN(CCSSCCN3CCC(CCOC(=O)Cc4ccc(OC(=O)CCCC(=O)OC/C=C\CCCCCC)cc4)CC3)CC2)cc1 [compound 41],PdI,[1]; [4],0.067
same,zeta potential (mV),[1]; [5],-2.30 mV
same,particle size (nm),[1]; [6],123.30 nm
same,amount of luminescence (photons/sec) in liver,[3],1.73E+09 photons/sec
same,relative amount of luminescence,[3],1.14
CCCCCCC#CCCOC(=O)CCCC(=O)Oc1ccc(CC(=O)OCCC2CCN(CCSSCCN3CCC(CCOC(=O)Cc4ccc(OC(=O)CCCCCCCC(=O)OC(CCCCCCCC)CCCCCCCC)cc4)CC3)CC2)cc1 [compound 148],PdI,[1]; [4],0.063
same,zeta potential (mV),[1]; [5],-4.31 mV
same,particle size (nm),[1]; [6],92.96 nm
same,zeta potential (mV),[2],-7.4 mV
same,PdI,[2],0.15
same,particle size (nm),[2],133.6 nm
